Consider one molecule from article PMC2216936 (The Journal of General Physiology, 1995).

The subject of experiment [1] is voltage-gated sodium channel (GH3 cells; isoform not stated). In words: whole-cell voltage clamp, block of peak INa. The format is cell-based.
Experiment [2] has as its target voltage-gated sodium channel (sheep brain synaptoneurosomes; isoform not stated). Kind of experiment: inhibition of [3H]-BTX-B radioligand binding at […] C. Further details: species or system Ovis aries.

In the case of `CCCCN(CCCC)CCNC(=O)c1ccc(N=[N+]=[N-])cc1` [DNB-AB, N-(2-di-N-butyl-aminoethyl)-4-azidobenzamide], the IC50 (in general, the concentration needed to halve the response being measured) was 27 µM in experiment [1] and 3.3 µM in experiment [2].
